What was measured:
[1] = Size and polydispersity of lipid nanoparticles by dynamic light scattering; assay type: physicochemical; details: LNP cationic lipid/DSPC/cholesterol/PEG-lipid 50:10:38.5:1.5 with mRNA
Method: (§1) Briefly, the cationic lipid, DSPC, cholesterol and PEG-lipid provided by the present invention were dissolved in ethanol at a molar ratio of 50:10:38.5:1.5, and mRNA was diluted in a citrate buffer at 10-50 mM, pH=4. The ethanolic lipid solution and the mRNA aqueous solution were mixed at a volume ratio of 1:3 by a microfluidic device at a flow rate of 9-30 mL/min, so as to prepare LNP at a weight ratio of total lipid to mRNA of about 10:1 to 30:1. PBS for dialysis was used instead of ethanol, thereby removing ethanol. Finally, the lipid nanoparticles were filtered through a 0.2 μm sterile filter.
(§2) The size of the lipid nanoparticles was determined by dynamic light scattering using 173° backscatter detection mode of Malvern Zetasizer Nano ZS (Malvern UK). According to the description of the manufacturer, the encapsulation efficiency of the lipid nanoparticle was determined using a Quant-it Ribogreen RNA quantitative assay kit (Thermo Fisher Scientific, UK).

[2] = Encapsulation efficiency of lipid nanoparticles (Quant-it Ribogreen RNA assay); assay type: physicochemical; details: LNP cationic lipid/DSPC/cholesterol/PEG-lipid 50:10:38.5:1.5 with mRNA
Method: as §1, §2

[3] = tested on: female ICR mice; assay: hEPO mRNA lipid nanoparticles in mice, serum EPO by ELISA; assay type: in vivo; details: hEPO mRNA LNP, 0.5 mg/kg, tail vein injection, blood e.g. 6 hours after administration, relative to MC3 LNP positive control
Method: Lipid nanoparticles including human erythropoietin (hEPO) mRNA encapsulated by compound in the following table were administered at a dose of 0.5 mg/kg to female ICR mice at 6-8 weeks of age (Xipuer-Bikai, Shanghai) via tail vein injection. Mouse blood samples were taken at specific time points (e.g., 6 hours) after administration. In addition to the above test groups, the lipid nanoparticles including dilinoleylmethyl-4-dimethylaminobutyrate (DLin-MC3-DMA, commonly abbreviated as MC3) encapsulated hEPO mRNA were administered at the same dose to mice of similar age and sex as positive controls.
After the last sampling time point, the mice were euthanized by excess CO2. Serum was separated from whole blood by centrifugation at 5,000 g for 10 minutes at 4° C., snap frozen and stored at −80° C. for analysis. ELSA analysis was performed using a commercially available kit (DEP00, R&D system) according to the manufacturer instructions.
The following table lists the characteristics of the tested lipid nanoparticles, including the expression levels measured from the test group above MC3.

Structure (SMILES): CCCCCCCCC(CCCCCC)COC(=O)CCCCCN(C)CC1(O)CCN(CCCCCC(=O)OCC(CCCCCC)CCCCCCCC)CC1 (centres unmarked) [Compound 11]
- Polydispersity index (PDI) [1]: 0.045
- Size (nm) [1]: 86.19 nm
- Encapsulation efficiency (EE %) [2]: 96.8%
- EPO expression relative to MC3 [3]: B (B: ≥1 and <2)

Structure (SMILES): CCCCCCCCC(CCCCCC)COC(=O)CCCCCN(CCCCCC(=O)OCC(CCCCCC)CCCCCCCC)CCN1CCC(O)(CN(C)C)CC1 (centres unmarked) [Compound 14]
- Polydispersity index (PDI) [1]: 0.139
- Size (nm) [1]: 97.33 nm
- Encapsulation efficiency (EE %) [2]: 97.3%
- EPO expression relative to MC3 [3]: Not detected

Structure (SMILES): CCCCCCCCC(CCCCCC)COC(=O)CCCCCN(CCCCCC(=O)OCC(CCCCCC)CCCCCCCC)CCN1CCC(O)(CN(C)CC)CC1 (centres unmarked) [Compound 10]
- Polydispersity index (PDI) [1]: 0.083
- Size (nm) [1]: 133.3 nm
- Encapsulation efficiency (EE %) [2]: 96.7%
- EPO expression relative to MC3 [3]: Not detected

Structure (SMILES): CCCCCCCCC(CCCCCCCC)COC(=O)CCCCCN(CCCCCC(=O)OCC(CCCCCCCC)CCCCCCCC)CC1(O)CCN(C)CC1 [Compound 2]
- Polydispersity index (PDI) [1]: 0.114
- Size (nm) [1]: 80.02 nm
- Encapsulation efficiency (EE %) [2]: 98.1%
- EPO expression relative to MC3 [3]: Not detected

Structure (SMILES): CCCCCCCCC(CCCCCCCC)COC(=O)CCCCCN(CCCCCC(=O)OCC(CCCCCCCC)CCCCCCCC)CCC(=O)N1CCC(O)(CN(C)C)CC1 [Compound 7]
- Polydispersity index (PDI) [1]: 0.073
- Size (nm) [1]: 43.78 nm
- Encapsulation efficiency (EE %) [2]: 97.6%
- EPO expression relative to MC3 [3]: Not detected

Structure (SMILES): CCCCCCCCC(CCCCCCCC)COC(=O)CCCCCN1CCC(O)(CN(CCCCCC(=O)OCC(CCCCCCCC)CCCCCCCC)C2CCC2)CC1 [Compound 8]
- Polydispersity index (PDI) [1]: 0.16
- Size (nm) [1]: 54.23 nm
- Encapsulation efficiency (EE %) [2]: 93.7%
- EPO expression relative to MC3 [3]: C (C: ≥0.1 and <1)

Structure (SMILES): CCCCCCCCC(CCCCCCCC)COC(=O)CCCCCN(CCCCCC(=O)OCC(CCCCCCCC)CCCCCCCC)CC1(O)CCN(C(=O)CN(C)C)CC1 [Compound 3]
- Polydispersity index (PDI) [1]: 0.248
- Size (nm) [1]: 78.45 nm
- Encapsulation efficiency (EE %) [2]: 97.3%
- EPO expression relative to MC3 [3]: Not detected

Structure (SMILES): CCCCCCCCC(CCCCCCCC)COC(=O)CCCCCN(CCCCCC(=O)OCC(CCCCCCCC)CCCCCCCC)CC1(O)CCN(CCC)CC1 [Compound 6]
- Polydispersity index (PDI) [1]: 0.034
- Size (nm) [1]: 83.23 nm
- Encapsulation efficiency (EE %) [2]: 92.8%
- EPO expression relative to MC3 [3]: A (A: ≥2)

Structure (SMILES): CCCCCCCCC(CCCCCCCC)COC(=O)CCCCCN(CCCCCC(=O)OCC(CCCCCCCC)CCCCCCCC)CC1(O)CCN(C(=O)CCCN(C)C)CC1 [Compound 1]
- Polydispersity index (PDI) [1]: 0.257
- Size (nm) [1]: 68.14 nm
- Encapsulation efficiency (EE %) [2]: 99.1%
- EPO expression relative to MC3 [3]: Not detected

Structure (SMILES): CCCCCCCCC(CCCCCC)CC(=O)OCC(CCCCN1CCC(O)(CN(C)C)CC1)COC(=O)CC(CCCCCC)CCCCCCCC (centres unmarked) [Compound 15]
- Polydispersity index (PDI) [1]: 0.06
- Size (nm) [1]: 53.67 nm
- Encapsulation efficiency (EE %) [2]: 94.3%
- EPO expression relative to MC3 [3]: Not detected

Structure (SMILES): CCCCCCCCC(CCCCCC)COC(=O)CCCCCN1CCC(O)(CN(CCCCCC(=O)OCC(CCCCCC)CCCCCCCC)C2CCCC2)CC1 (centres unmarked) [Compound 12]
- Polydispersity index (PDI) [1]: 0.084
- Size (nm) [1]: 109.1 nm
- Encapsulation efficiency (EE %) [2]: 81.5%
- EPO expression relative to MC3 [3]: C (C: ≥0.1 and <1)

Structure (SMILES): CCCCCCCCC(CCCCCCCC)COC(=O)CCCCCN(CCCCCC(=O)OCC(CCCCCCCC)CCCCCCCC)CC1(O)CCN(C(=O)CCCCN(C)C)CC1 [Compound 4]
- Polydispersity index (PDI) [1]: 0.28
- Size (nm) [1]: 55.63 nm
- Encapsulation efficiency (EE %) [2]: 98.4%
- EPO expression relative to MC3 [3]: Not detected

Structure (SMILES): CCCCCCCCC(CCCCCC)COC(=O)CCCCCN(CCCCCC(=O)OCC(CCCCCC)CCCCCCCC)CCCCCC(=O)N1CCC(O)(CN(C)C)CC1 (centres unmarked) [Compound 9]
- Polydispersity index (PDI) [1]: 0.212
- Size (nm) [1]: 35.26 nm
- Encapsulation efficiency (EE %) [2]: 97.6%
- EPO expression relative to MC3 [3]: Not detected

Structure (SMILES): CCCCCCCCC(CCCCCC)COC(=O)CCCCCN1CCC(O)(CN(CCCCCC(=O)OCC(CCCCCC)CCCCCCCC)C2CCCCC2)CC1 (centres unmarked) [Compound 13]
- Polydispersity index (PDI) [1]: 0.049
- Size (nm) [1]: 117.7 nm
- Encapsulation efficiency (EE %) [2]: 83.9%
- EPO expression relative to MC3 [3]: C (C: ≥0.1 and <1)
